Assay results: patent US10442808B2, “Pyrazolo pyrimidine derivatives and their use as MALT1 inhbitors” (NOVARTIS AG, priority 2014, dated 2019)

What was measured:
[1] = biological target: C-domain of MALT1 (amino acids 329-824) (Homo sapiens (Human), UniProt Q9UDY8); assay: MALT1 biochemical assay (fluorescence lifetime enzyme activity assay); settings: 60 min preincubation, 2.5 nM enzyme, 1 μM substrate
Method: The readout parameter is the increase of fluorescence lifetime over time, proportional to enzyme activity.
The assay employs a short peptide substrate labeled with the single fluorophore PT14 as a fluorescence lifetime probe sensitive to the cleavage state of the substrate (PT14: 6-(9-oxo-9H-acridin-10-yl)-hexanoate, AssayMetrics, UK). […] The assay buffer consists of 200 mM Tris/HCl at pH 7.5, 0.8 M Na citrate, 100 μM EGTA, 100 μM DTT and 0.05% (w/v) CHAPS. […] Test compounds were dissolved in 100% (v/v) DMSO or a mixture containing 90% (v/v) DMSO and 10% (v/v) H2O at a stock concentration of 100 mM. Serial dilutions of test compounds were prepared using either 100% (v/v) DMSO or a mixture containing 90% (v/v) DMSO and 10% (v/v) H2O.
The exponent, p, is the Hill coefficient.

IL2 promoter = assay: Human IL2 promoter reporter gene assay (RGA) in Jurkat cells; format: cell-based
Method: Human IL2 Promoter Reporter Gene Assay (RGA) in Jurkat Cells
The transfected Jurkat clone K22 290_H23 was propagated in RPMI 1640 supplemented with 10% heat inactivated fetal calf serum, 50 μM 2-mercaptoethanol and 1 mg/ml Geneticin. The cell concentration should not exceed 1×10e6/ml during culturing. The cells should not exceed passage 30. Prior to the assay the cells were washed and prepared to the concentration of 2×10e6 cells/ml.
Compound dilutions were made as 2×-concentrated solutions then diluted ½ by addition to cells. Two hundred and fifty μl of compound dilution and 250 μl of cells were mixed together in wells of a 96-deep well plate. Cells/compounds premix were incubated 30 min at 37° C. and 5% CO2 directly in the deep well plate.
After pre-incubation of cells with compounds, cells were stimulated with anti-CD28 mAb (clone 15E8) at 3 μg/ml+PMA at 1 μg/ml. Both co-stimulants were diluted in culture medium at a 10×-concentrated solution. 10 μl of co-stimulants were pipetted into the white 96-well plates and 100 μl of cell/compound mix was immediately added in duplicates. The cells were stimulated for 5.5 h at 37° C. and 5% CO2.
After cell stimulation, 50 μl of BriteLitePlus reagent (Perkin Elmer) was added to each well and the bioluminescence was measured with a Wallac EnVision reader (Perkin Elmer).

[2] = […], heading: IL2 reporter gene assay IC50, anti-CD28 mAb + PMA stimulation 5.5 h

Sequence of C-domain of MALT1 (amino acids 329-824) (Q9UDY8 329-824): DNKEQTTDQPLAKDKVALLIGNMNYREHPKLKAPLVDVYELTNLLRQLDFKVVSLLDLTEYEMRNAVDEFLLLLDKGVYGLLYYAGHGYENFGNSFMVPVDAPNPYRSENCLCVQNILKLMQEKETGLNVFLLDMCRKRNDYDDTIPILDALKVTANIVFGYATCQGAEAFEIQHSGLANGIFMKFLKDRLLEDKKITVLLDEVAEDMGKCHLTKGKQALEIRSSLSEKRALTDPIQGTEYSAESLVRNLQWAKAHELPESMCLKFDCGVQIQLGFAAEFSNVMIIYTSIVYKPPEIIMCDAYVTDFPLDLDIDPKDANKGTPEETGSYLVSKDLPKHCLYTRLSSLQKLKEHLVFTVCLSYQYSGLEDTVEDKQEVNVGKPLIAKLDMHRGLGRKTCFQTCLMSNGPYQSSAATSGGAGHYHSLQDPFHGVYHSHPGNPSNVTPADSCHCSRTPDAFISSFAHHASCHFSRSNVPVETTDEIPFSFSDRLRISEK

| IC50 [1] | IC50 (IL2 promoter; [2]) | SMILES | IC50 (IL2 promoter; anti-CD28 mAb + PMA stimulation 5.5 h) |
| --- | --- | --- | --- |
| 4 nM | 526 nM | CC(C)c1c(NC(=O)Nc2ccc(-c3ccnc(N)n3)c(Cl)c2)cnc2cc(Cl)nn12 [Example 23, 1-(4-(2-aminopyrimidin-4-yl)-3-chlorophenyl)-3-(2-chloro-7-isopropylpyrazolo[1,5-a]pyrimidin-6-yl)urea] |  |
| 41 nM |  | O=C(Nc1cnc(-n2nccn2)c(Cl)c1)Nc1cnc2cc(Cl)nn2c1C1COCCN1 (centres unmarked) [Example 123, 1-(5-chloro-6-(2H-1,2,3-triazol-2-yl)pyridin-3-yl)-3-(2-chloro-7-(morpholin-3-yl)pyrazolo[1,5-a]pyrimidin-6-yl)urea] |  |
| 80 nM | 44 nM | Cn1ccnc1-c1c(NC(=O)Nc2cnc(-n3nccn3)c(Cl)c2)cnc2cc(Cl)nn12 [Example 86, 1-(5-chloro-6-(2H-1,2,3-triazol-2-yl)pyridin-3-yl)-3-(2-chloro-7-(1-methyl-1H-imidazol-2-yl)pyrazolo[1,5-a]pyrimidin-6-yl)urea] |  |
| 5 nM |  | C[C@H](O[C@H]1CCOC1)c1c(NC(=O)Nc2cnc(-n3nccn3)c(Cl)c2)cnc2cc(Cl)nn12 [Example 101, 1-(5-chloro-6-(2H-1,2,3-triazol-2-yl)pyridin-3-yl)-3-(2-chloro-7-((S)-1-(((S)-tetrahydrofuran-3-yl)oxy)ethyl)pyrazolo [1,5-a]pyrimidin-6-yl)urea] |  |
| 76 nM |  | O=C(Nc1cnc(-n2nccn2)c(Cl)c1)Nc1cnc2cc(Cl)nn2c1C1CNCCO1 (centres unmarked) [Example 115, 1-(5-chloro-6-(2H-1,2,3-triazol-2-yl)pyridin-3-yl)-3-(2-chloro-7-(morpholin-2-yl)pyrazolo[1,5-a]pyrimidin-6-yl)urea] |  |
|  | 19 nM | COc1ncc(NC(=O)Nc2cnc3cc(Cl)nn3c2[C@H](C)OC)cc1Cl [Example 9, (S)-1-(5-chloro-6-methoxypyridin-3-yl)-3-(2-chloro-7-(1-methoxyethyl)pyrazolo [1,5-a]pyrimidin-6-yl)urea] |  |
|  | 30 nM | CO[C@@H](C)c1c(NC(=O)Nc2ccnc(C(F)(F)F)c2)cnc2cc(C)nn12 [Example 6, (S)-1-(7-(1-methoxyethyl)-2-methylpyrazolo[1,5-a]pyrimidin-6-yl)-3-(2-(trifluoromethyl)pyridin-4-yl)urea] |  |
| 12 nM |  | CN[C@@H](C)c1c(NC(=O)Nc2cnc(-n3nccn3)c(Cl)c2)cnc2cc(Cl)nn12 [Example 119, (S)-1-(5-chloro-6-(2H-1,2,3-triazol-2-yl)pyridin-3-yl)-3-(2-chloro-7-(1-(methylamino)ethyl)pyrazolo[1,5-a]pyrimidin-6-yl)urea] |  |
|  | 100 nM | CC(C)c1c(NC(=O)Nc2ccc(-n3nccn3)c(Cl)c2)cnc2cc(Cl)nn12 [Example 20, l-(3-chloro-4-(2H-1,2,3-triazol-2-yl)phenyl)-3-(2-chloro-7-isopropylpyrazolo [1,5-a]pyrimidin-6-yl)urea] |  |
| 9 nM |  | Cc1cc(CO)nn1-c1ccc(NC(=O)Nc2cnc3cc(Cl)nn3c2C(C)C)cc1Cl [Example 28, 1-(3-chloro-4-(3-(hydroxymethyl)-5-methyl-1H-pyrazol-1-yl)phenyl)-3-(2-chloro-7-isopropylpyrazolo[1,5-a]pyrimidin-6-yl)urea] |  |
| 18 nM | 28 nM | CC(C)(C)OC(=O)N1CCOC(c2c(NC(=O)Nc3cnc(-n4nccn4)c(Cl)c3)cnc3cc(Cl)nn23)C1 (centres unmarked) [Example 66, tert-butyl 2-(2-chloro-6-(3-(5-chloro-6-(2H-1,2,3-triazol-2-yl)pyridin-3-yl)ureido)pyrazolo[1,5-a]pyrimidin-7-yl)morpholine-4-carboxylate] |  |
|  | 43 nM | CC1(c2c(NC(=O)Nc3ccnc(C(F)(F)F)c3)cnc3cc(Cl)nn23)CCCO1 (centres unmarked) [Example 36, 1-(2-chloro-7-(2-methyltetrahydrofuran-2-yl)pyrazolo[1,5-a]pyrimidin-6-yl)-3-(2-(trifluoromethyl)pyridin-4-yl)urea] |  |
|  | 207 nM | CC1(c2c(NC(=O)Nc3cnc(-n4nccn4)c(Cl)c3)cnc3cc(Cl)nn23)CC1 [Example 16, 1-(5-chloro-6-(2H-1,2,3-triazol-2-yl)pyridin-3-yl)-3-(2-chloro-7-(1-methylcyclopropyl)pyrazolo[1,5-a]pyrimidin-6-yl)urea] |  |
|  | 41 nM | COc1ncc(NC(=O)Nc2cnc3cc(Cl)nn3c2C2CCC(C)O2)cc1Cl (centres unmarked) [Example 87, 1-(5-chloro-6-methoxypyridin-3-yl)-3-(2-chloro-7-(5-methyltetrahydrofuran-2-yl)pyrazolo[1,5-a]pyrimidin-6-yl)urea] |  |
|  |  | CO[C@@H](C)c1c(NC(=O)Nc2cc(C(F)(F)F)cn(C)c2=O)cnc2cc(Cl)nn12 [Example 3, (S)-1-(2-chloro-7-(1-methoxyethyl)pyrazolo[1,5-a]pyrimidin-6-yl)-3-(1-methyl-2-oxo-5-(trifluoromethyl)-1,2-dihydropyridin-3-yl)urea] | 131 nM |
|  | 16 nM | C[C@H](OCCN(C)C)c1c(NC(=O)Nc2cnc(-n3nccn3)c(Cl)c2)cnc2cc(Cl)nn12 [Example 82, (S)-1-(5-chloro-6-(2H-1,2,3-triazol-2-yl)pyridin-3-yl)-3-(2-chloro-7-(1-(2-(dimethylamino)ethoxy)ethyl)pyrazolo[1,5-a]pyrimidin-6-yl)urea] |  |
|  | 95 nM | COC(c1ccccc1)c1c(NC(=O)Nc2cnc(-n3nccn3)c(Cl)c2)cnc2cc(Cl)nn12 (centres unmarked) [Example 49, 1-(5-chloro-6-(2H-1,2,3-triazol-2-yl)pyridin-3-yl)-3-(2-chloro-7-(methoxy(phenyl)methyl)pyrazolo[1,5-a]pyrimidin-6-yl)urea] |  |
|  | 76 nM | O=C(Nc1cnc(-n2nccn2)c(Cl)c1)Nc1cnc2cc(Cl)nn2c1C1CC12CCOC2 (centres unmarked) [Example 68, 1-(5-chloro-6-(2H-1,2,3-triazol-2-yl)pyridin-3-yl)-3-(2-chloro-7-(5-oxaspiro[2.4]heptan-1-yl)pyrazolo[1,5-a]pyrimidin-6-yl)urea] |  |
|  | 33 nM | CO[C@@H](C)c1c(NC(=O)Nc2ccnc(C(F)(F)F)c2)cnc2cc(F)nn12 [Example 7, (S)-1-(2-fluoro-7-(1-methoxyethyl)pyrazolo[1,5-a]pyrimidin-6-yl)-3-(2-(trifluoromethyl)pyridin-4-yl)urea] |  |

| SMILES | IC50 [1] | IC50 (IL2 promoter; [2]) | IC50 (IL2 promoter; anti-CD28 mAb + PMA stimulation 5.5 h) |
| --- | --- | --- | --- |
| C[C@H](O)c1c(NC(=O)Nc2ccnc(C(F)(F)F)c2)cnc2cc(Cl)nn12 [Example 114, (S)-1-(2-chloro-7-(1-hydroxyethyl)pyrazolo[1,5-a]pyrimidin-6-yl)-3-(2-(trifluoromethyl)pyridin-4-yl)urea] | 7 nM |  |  |
| CO[C@@H](C)c1c(NC(=O)Nc2cncc(C#N)c2)cnc2cc(Cl)nn12 [Example 8, (S)-1-(2-chloro-7-(1-methoxyethyl)pyrazolo[1,5-a]pyrimidin-6-yl)-3-(5-cyanopyridin-3-yl)urea] |  | 109 nM |  |
| CC(C)c1c(NC(=O)Nc2cnc(-n3nccn3)c(Cl)c2)cnc2cc(Cl)nn12 [Example 21, 1-(5-chloro-6-(2H-1,2,3-triazol-2-yl)pyridin-3-yl)-3-(2-chloro-7-isopropylpyrazolo[1,5-a]pyrimidin-6-yl)urea] |  | 307 nM |  |
| CC(C)c1c(NC(=O)Nc2cc(C(F)(F)F)ncc2-n2nccn2)cnc2cc(Cl)nn12 [Example 112, 1-(5-(2H-1,2,3-triazol-2-yl)-2-(trifluoromethyl)pyridin-4-yl)-3-(2-chloro-7-isopropylpyrazolo[1,5-a]pyrimidin-6-yl)urea] |  | 58 nM |  |
